Results: ChEMBL document CHEMBL1201862, “PubChem BioAssay data set” (2004)
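Values below derive from 48-hour exposures of cells grown in 96-well plates, with endpoints linearly interpolated between the two concentrations bracketing the appropriate inhibition level. GI50: concentration for 50% inhibition of growth.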 Activity calls are given as the source filed them. No stated cut-off is given here; in the data, active = GI50 up to about 1.1 µM and inactive = higher.

Experiments:
Assay in all cases: NCI tumour cell line growth inhibition, 48 h
[1] = tested on: 786-0
[2] = tested on: A498
[3] = tested on: A549
[4] = tested on: ACHN
[5] = tested on: BT-549
[6] = tested on: CCRF-CEM
[7] = tested on: COLO 205
[8] = tested on: DU-145
[9] = tested on: EKVX
[10] = tested on: HCC 2998
[11] = tested on: HCT-116
[12] = tested on: HCT-15
[13] = tested on: HL-60
[14] = tested on: HOP-62
[15] = tested on: HOP-92
[16] = tested on: HT-29
[17] = tested on: Hs-578T
[18] = tested on: IGROV-1
[19] = tested on: KM12
[20] = tested on: LOX IMVI
[21] = tested on: M14
[22] = tested on: MCF7
[23] = tested on: MDA-MB-231
[24] = tested on: MDA-MB-435
[25] = tested on: MOLT-4
[26] = tested on: Malme-3M
[27] = tested on: NCI-H226
[28] = tested on: NCI-H23
[29] = tested on: NCI-H460
[30] = tested on: NCI-H522
[31] = tested on: NCI/ADR-RES
[32] = tested on: OVCAR-3
[33] = tested on: OVCAR-4
[34] = tested on: OVCAR-5
[35] = tested on: OVCAR-8
[36] = tested on: PC-3
[37] = tested on: RPMI-8226
[38] = tested on: RXF 393
[39] = tested on: SF-268
[40] = tested on: SF-295
[41] = tested on: SF-539
[42] = tested on: SK-MEL-28
[43] = tested on: SK-MEL-2
[44] = tested on: SK-MEL-5
[45] = tested on: SK-OV-3
[46] = tested on: SNB-19
[47] = tested on: SNB-75
[48] = tested on: SR
[49] = tested on: SW-620
[50] = tested on: T47D
[51] = tested on: TK-10
[52] = tested on: U-251
[53] = tested on: UACC-257
[54] = tested on: UACC-62
[55] = tested on: UO-31
[56] = tested on: CAKI-1
[57] = tested on: K562
[58] = tested on: SN12C

COC(=O)c1cc2c3c(ccc2[nH]1)N(C(=O)c1cc2cc(OC)c(OC)c(OC)c2[nH]1)CC3CCl (stereo unspecified)
GI50 [1]: 3.79 µM (inactive)
GI50 [2]: 42.5 µM (inactive)
GI50 [3]: 5.37 µM (inactive)
GI50 [4]: 5.62 µM (inactive)
GI50 [5]: 3.51 µM (inactive)
GI50 [6]: 5.98 µM (inactive)
GI50 [7]: 2.66 µM (inactive)
GI50 [8]: 6.44 µM (inactive)
GI50 [9]: > 100 µM (inactive)
GI50 [10]: > 100 µM (inactive)
GI50 [11]: 4.46 µM (inactive)
GI50 [12]: 5.71 µM
GI50 [13]: 1.48 µM (inactive)
GI50 [14]: > 21.8 µM (inactive)
GI50 [15]: > 100 µM (inactive)
GI50 [16]: 8.55 µM (inactive)
GI50 [17]: 8.45 µM (inactive)
GI50 [18]: 7.87 µM (inactive)
GI50 [19]: 6.4 µM (inactive)
GI50 [20]: 4.98 µM (inactive)
GI50 [21]: > 27.5 µM (inactive)
GI50 [22]: 3.94 µM (inactive)
GI50 [23]: > 100 µM (inactive)
GI50 [24]: 13.7 µM (inactive)
GI50 [25]: 1.57 µM (inactive)
GI50 [26]: 8.59 µM (inactive)
GI50 [27]: 14.3 µM (inactive)
GI50 [28]: 5.56 µM (inactive)
GI50 [29]: 2.79 µM (inactive)
GI50 [30]: 2.9 µM (inactive)
GI50 [31]: 12.2 µM (inactive)
GI50 [32]: > 24.4 µM (inactive)
GI50 [33]: 8.34 µM (inactive)
GI50 [34]: > 100 µM (inactive)
GI50 [35]: 12.6 µM (inactive)
GI50 [36]: 4.31 µM (inactive)
GI50 [37]: 1.69 µM (inactive)
GI50 [38]: 5.51 µM (inactive)
GI50 [39]: > 100 µM (inactive)
GI50 [40]: 7.78 µM (inactive)
GI50 [41]: > 34.8 µM (inactive)
GI50 [42]: > 24.1 µM (inactive)
GI50 [43]: > 100 µM (inactive)
GI50 [44]: 2.23 µM (inactive)
GI50 [45]: > 100 µM (inactive)
GI50 [46]: > 100 µM (inactive)
GI50 [47]: > 100 µM (inactive)
GI50 [48]: 1.1 µM (active)
GI50 [49]: 5.48 µM (inactive)
GI50 [50]: > 100 µM (inactive)
GI50 [51]: > 54.2 µM (inactive)
GI50 [52]: 6.58 µM (inactive)
GI50 [53]: 81.5 µM (inactive)
GI50 [54]: 4.54 µM (inactive)
GI50 [55]: 7.59 µM (inactive)

Fc1ccc(C(OCCN2CC3CC2CN3)c2ccc(F)cc2)cc1 (stereo unspecified)
GI50 [2]: 44.9 µM (inactive)
GI50 [4]: > 100 µM (inactive)
GI50 [5]: > 100 µM (inactive)
GI50 [56]: > 100 µM (inactive)
GI50 [6]: 35.3 µM (inactive)
GI50 [7]: 18.2 µM (inactive)
GI50 [8]: > 100 µM (inactive)
GI50 [10]: 16.4 µM (inactive)
GI50 [12]: 60.5 µM
GI50 [13]: 20.5 µM (inactive)
GI50 [14]: > 100 µM (inactive)
GI50 [15]: 69.2 µM (inactive)
GI50 [17]: 57.3 µM (inactive)
GI50 [18]: 53.3 µM (inactive)
GI50 [57]: 36 µM (inactive)
GI50 [19]: 39.6 µM (inactive)
GI50 [20]: 50.9 µM (inactive)
GI50 [22]: 33.7 µM (inactive)
GI50 [23]: 46.8 µM (inactive)
GI50 [24]: 23.1 µM (inactive)
GI50 [25]: 43.1 µM (inactive)
GI50 [26]: 16.7 µM (inactive)
GI50 [27]: 59 µM (inactive)
GI50 [28]: > 100 µM (inactive)
GI50 [29]: 38.9 µM (inactive)
GI50 [30]: 47.3 µM (inactive)
GI50 [31]: 97.9 µM (inactive)
GI50 [32]: > 100 µM (inactive)
GI50 [33]: > 100 µM (inactive)
GI50 [35]: > 100 µM (inactive)
GI50 [36]: 59.2 µM (inactive)
GI50 [37]: 26.1 µM (inactive)
GI50 [38]: 27.4 µM (inactive)
GI50 [39]: > 100 µM (inactive)
GI50 [40]: 83.2 µM (inactive)
GI50 [41]: 29.6 µM (inactive)
GI50 [42]: 21.8 µM (inactive)
GI50 [43]: 19.1 µM (inactive)
GI50 [44]: 16.4 µM (inactive)
GI50 [45]: > 100 µM (inactive)
GI50 [47]: 66.4 µM (inactive)
GI50 [48]: 27.5 µM (inactive)
GI50 [49]: > 100 µM (inactive)
GI50 [50]: 35.2 µM (inactive)
GI50 [51]: 32.8 µM (inactive)
GI50 [52]: 48.5 µM (inactive)
GI50 [53]: 18.3 µM (inactive)
GI50 [54]: 19.5 µM (inactive)

CN(C(=O)OC(C)(C)C)[C@H]1CCCC[C@H]1N1CCCC1
GI50 [1]: > 100 µM (inactive)
GI50 [2]: > 100 µM (inactive)
GI50 [3]: > 100 µM (inactive)
GI50 [4]: > 100 µM (inactive)
GI50 [5]: > 100 µM (inactive)
GI50 [56]: > 100 µM (inactive)
GI50 [6]: 0.0129 µM (active)
GI50 [7]: > 100 µM (inactive)
GI50 [8]: > 100 µM (inactive)
GI50 [9]: > 100 µM (inactive)
GI50 [11]: > 100 µM (inactive)
GI50 [12]: > 100 µM
GI50 [13]: 5.81 µM (inactive)
GI50 [14]: > 100 µM (inactive)
GI50 [16]: > 100 µM (inactive)
GI50 [17]: > 100 µM (inactive)
GI50 [18]: > 100 µM (inactive)
GI50 [57]: > 100 µM (inactive)
GI50 [19]: > 100 µM (inactive)
GI50 [20]: > 100 µM (inactive)
GI50 [21]: > 100 µM (inactive)
GI50 [22]: > 100 µM (inactive)
GI50 [23]: > 100 µM (inactive)
GI50 [24]: > 100 µM (inactive)
GI50 [25]: > 100 µM (inactive)
GI50 [26]: > 100 µM (inactive)
GI50 [27]: > 100 µM (inactive)
GI50 [28]: > 100 µM (inactive)
GI50 [30]: > 100 µM (inactive)
GI50 [31]: > 100 µM (inactive)
GI50 [32]: > 100 µM (inactive)
GI50 [33]: > 100 µM (inactive)
GI50 [34]: > 100 µM (inactive)
GI50 [35]: > 100 µM (inactive)
GI50 [36]: > 100 µM (inactive)
GI50 [37]: > 100 µM (inactive)
GI50 [39]: > 100 µM (inactive)
GI50 [40]: > 100 µM (inactive)
GI50 [41]: > 100 µM (inactive)
GI50 [42]: > 100 µM (inactive)
GI50 [43]: > 100 µM (inactive)
GI50 [44]: > 100 µM (inactive)
GI50 [45]: > 100 µM (inactive)
GI50 [58]: > 100 µM (inactive)
GI50 [46]: > 100 µM (inactive)
GI50 [48]: > 100 µM (inactive)
GI50 [49]: > 100 µM (inactive)
GI50 [50]: > 100 µM (inactive)
GI50 [51]: > 100 µM (inactive)
GI50 [52]: > 100 µM (inactive)
GI50 [53]: 53.7 µM (inactive)
GI50 [54]: > 100 µM (inactive)
GI50 [55]: > 100 µM (inactive)
